Data set [1] concerns clinical S. aureus isolate BF3. Nature of the data set: Broth microdilution MIC, clinical S. aureus isolate BF3. The data set is classed as cell-based. To be noted: Staphylococcus aureus. The method, then:
(§1) In vitro antibacterial activities were determined using the broth microdilution method. Assays were performed as described in Clinical and Laboratory Standards Institute protocols in triplicate using cation-adjusted Muller–Hinton broth (Becton Dickinson and Company, Franklin Lakes, NJ, USA) in 96-well plates with a total assay volume of 100 µL. Two-fold serial dilutions of test compounds were prepared over the concentration range of 1–64 µg/mL. The bacterial concentration was adjusted to OD600 = 0.06. […] A 10 µL aliquot from each well in the MIC assays was plated onto Muller–Hinton agar (Becton Dickinson and Company, Franklin Lakes, NJ, USA) and incubated overnight at 37 °C. The lowest concentration of compound for which no growth was observed on agar plates was reported as the minimal bactericidal concentration (MBC).
(Broth dilution looks for growth in wells or tubes with falling amounts of substance.)

The test system of data set [2] is MRSA MW2 infection of Galleria mellonella larvae. Briefly: G. mellonella–MRSA survival assay. The data set is classed as in vivo. To be noted: larvae infected with MRSA MW2 5 × 10^5 CFU, compound 10 mg/kg 2 h after infection, monitored 120 h; untreated 1 day. The protocol: Larvae were infected with MRSA MW2 (5 × 10^5 CFU) in the left rear proleg, and after two hours, the compounds were introduced separately at 10 mg/kg into the right rear proleg and larvae survival was monitored for 120 h.
Assays were performed as described previously. Briefly, sixteen randomly selected G. mellonella larvae (Vanderhorst, Inc., St. Mary’s, OH, USA) between 300–350 mg were used for each test group. MRSA-MW2 was grown in Tryptic Soy Broth (TSB), washed with phosphate buffered saline (PBS, pH = 7.4), and diluted to OD600 = 0.3 before inoculation into G. mellonella larvae. A 10-μL inoculum was injected into the last left proleg using a 10-μL Hamilton syringe. After 2 h, compounds were administered into the last right proleg and larvae were incubated at 37 °C. G.mellonella survival was monitored for 120 h, and death was confirmed when there was no response. Killing curves and differences in survival were analyzed by the Kaplan–Meier method using GraphPad Prism version 8 (GraphPad Software, La Jolla, CA, USA). Statistical analysis (Kruskal–Wallis test) was carried out using the same program.

A further data set concerns Pseudomonas aeruginosa. Nature of the data set: Broth microdilution MIC, Pseudomonas aeruginosa. The data set is classed as cell-based. The protocol:
as §1

For another data set, the system named is Enterococcus faecium. Briefly: Broth microdilution MIC, Enterococcus faecium. The data set is classed as cell-based. The method, then:
as §1

In the next data set the test system is Enterobactor aerogens. Nature of the data set: Broth microdilution MIC, Enterobactor aerogens. The data set is classed as cell-based. The method, then:
as §1

In data set [3] the test system is MRSA-MW2 infection of C. elegans. Nature of the data set: C. elegans–MRSA-MW2 high-throughput screen (Z-score, alive versus dead worms). The format is in vivo, Caenorhabditis elegans. To be noted: screening concentration 2.86 µg/mL, hits Z > 2. The text has this:
The five compounds: (4,4′,4″-(4-propyl-[1H]-pyrazole-1,3,5-triyl)trisphenol, PPT; (1S,2S)-2-[2-[[3-(1H-benzimidazol-2-yl)propyl]methylamino]ethyl]-6-fluoro-1,2,3,4-tetrahydro-1-(1-methylethyl)-2- naphthalenyl cyclopropanecarboxylate dihydrochloride, NNC; 4,5,6,7-tetrabromobenzotriazole, TBB; 3-[2-[2-chloro-4-[3-(2,6-dichlorophenyl)-5-(1-methylethyl)-4-isoxazolyl]methoxy]phenyl] ethenyl] benzoic acid, GW4064; and N-(cyclopropylmethoxy)-3,4,5-trifluoro-2-[(4-iodo-2-methylphenyl)amino] benzamide, PD198306) were purchased from Tocris Bioscience at the following levels of purity: PPT: >99.7%, NNC: >98%, TBB: >99%, GW4064: >97%, and PD198306: 98.8%. […] Hits were identified based on Z-scores. Z-scores are calculated from the ratio of alive versus dead worms after treatment with test compounds and represents the number of standard deviations (SD) the test compound differs from the mean using the formula Z = (x − μ)/σ; where x is the raw sample score, μ is the mean of the population and σ is the standard deviation of the population. Samples with Z > 2σ are considered hits.

A further data set has as its system Acinetobacter baumannii. Briefly: Broth microdilution MIC, Acinetobacter baumannii. The data set is classed as cell-based. The protocol:
as §1

Data set [4] deals with clinical S. aureus isolate BF2. Briefly: Broth microdilution MIC, clinical S. aureus isolate BF2. The format is cell-based. To be noted: Staphylococcus aureus. The method, then:
as §1

The test system of a further data set is MKN-28. Nature of the data set: MTT cytotoxicity, MKN-28. To be noted: MKN-28, 24 hr.
In data set [5] the test system is clinical S. aureus isolate BF1. Nature of the data set: Broth microdilution MIC, clinical S. aureus isolate BF1. The format is cell-based. To be noted: Staphylococcus aureus. The method, then:
as §1

Data set [6] relates to MRSA MW2. Briefly: Sytox green membrane permeabilization. The data set is classed as cell-based, Staphylococcus aureus. The following applies: compounds at 64 µg/mL, monitored over 1 h. The protocol:
To determine whether the compounds target bacterial membranes, MRSA MW2 was treated with the compounds and uptake of the membrane-impermeable DNA-binding fluorescent dye Sytox green was monitored over 1 h (Figure 4).
Sytox Green (Life Technologies, Needham, MA, USA) membrane permeabilization assays were performed as previously described. The experiments were carried out in duplicate in 96-well plates. Cells were grown to log phase and were harvested by centrifuging at 3700× g for 5 min. The cells were washed twice with PBS and resuspended to OD600 = 0.2, following which 5 µM Sytox green was added to the cells and the bacteria-dye mixture were incubated in the dark for 30 mins.
Cell suspensions (50 µL) were added to 50 µL of test compounds (64 µg/mL in PBS) and fluorescence intensity was measured (excitation 485 nm, emission 530 nm) periodically over 60 min.

Another data set deals with HepG2. Nature of the data set: MTT cytotoxicity, HepG2. The following applies: HepG2, 24 hr.
The subject of a further data set is Klebsiella pneumoniae. Briefly: Broth microdilution MIC, Klebsiella pneumoniae. The data set is classed as cell-based. The protocol:
as §1

The test system of data set [7] is clinical S. aureus isolate BF4. Nature of the data set: Broth microdilution MIC, clinical S. aureus isolate BF4. The data set is classed as cell-based. The following applies: Staphylococcus aureus. The protocol: as §1
In a further data set the test system is MRSA-MW2. Briefly: Checkerboard synergy assay (FIC index). The data set is classed as cell-based, Staphylococcus aureus. The following applies: synergy FIC ≤ 0.5. The method, then: The combination of two antibiotics with different modes of action can reduce bacterial resistance and sometimes even restore clinical efficacy of an antibiotic that has lost effectiveness. The five compounds were tested against MRSA-MW2 in the presence of five clinical antibiotics from different classes (i.e., polymyxin B, gentamycin, erythromycin, doxycycline, and oxacillin).
Antibacterial synergy for combinations of the compounds with each other and with clinical antibiotics (doxycycline, gentamicin, polymyxin-B, oxacillin, and erythromycin) was measured using checkerboard assays. In short, Cultures of MRSA-MW2 were adjusted to OD600 = 0.06 and one compound was arrayed horizontally and other vertically in 96 well plates. The assays were carried out in triplicate, exactly as described for the antibacterial susceptibility assays. The inhibitory effects of compound combinations were evaluated using the Fractional Inhibitory Concentration (FIC) index, derived from the formula:FIC index = FICA + FICB = [A]/MICA + [B]/MICB
MIC of substance A tested in combination /MIC of substance A tested alone + MIC of substance B tested in combination/MIC of substance B tested alone. Synergy is indicated when FIC ≤ 0.5, indifference when 0.5 ≤ FIC ≤ 4, and antagonism when FIC > 4. Experiments were performed in duplicate and report the average FIC index.

The subject of the next data set is A549. Nature of the data set: MTT cytotoxicity, A549. The following applies: A549, 24 hr.
Data set [8] deals with MRSA MW2. Briefly: Broth microdilution antibacterial susceptibility (MIC/MBC), MRSA MW2. The data set is classed as cell-based, Staphylococcus aureus. The method, then: as §1
Where [9] appears, read: Enterobactor aerogens, read-out: MIC.
The mark [10] stands for this setting: Staphylococcus aureus, MRSA MW2, 18 h, 37 °C, read-out: MIC.
[11] abbreviates: Staphylococcus aureus, MRSA MW2, read-out: MBC.
Setting [12] is: Staphylococcus aureus, stated in text across MRSA MW2 and four clinical S. aureus isolates, read-out: MIC against MRSA MW2 and the clinical isolates.

In brackets after ≈: the same amount, converted by molar mass. Like-named read-outs stand apart in the source and are kept apart here.

By MIC is commonly meant the lowest concentration that inhibits growth of the organism. In general, MBC refers to the lowest tested concentration that kills the bacteria rather than only halting them.

Protocol for A549: (§2) Mammalian cell lines HepG2 (hepatic cells), A549 (epithelial cells), and MKN-28 (gastric cells) were used to measure the anti-proliferative properties of test compounds, as described elsewhere [28]. Cells were grown in Dulbecco’s Modified Eagle Medium (DMEM) (Gibco, Waltham, MA, USA) supplemented with 10% Fetal Bovine Serum (FBS) (Gibco, Waltham, MA, USA) and 1% penicillin/streptomycin (Gibco, Waltham, MA, USA) and maintained at 37 °C in 5% CO2. After harvesting, the cells were suspended in DMEM and 100 µL was added to the wells of 96-well plates. The test compounds were serially diluted in serum and antibiotic free DMEM, added to the monolayer of cells, and incubated at 37 °C in 5% CO2 for 24 hr. Percentage survival was calculated by comparison to DMSO-treated vehicle controls. Assays were carried out in triplicate.
Protocol for HepG2: as §2
Protocol for MKN-28: as §2

For `CC(C)c1onc(-c2c(Cl)cccc2Cl)c1COc1ccc(C=Cc2cccc(C(=O)O)c2)c(Cl)c1` [GW4064, 3-[2-[2-Chloro-4-[[3-(2,6-dichlorophenyl)-5-(1-methylethyl)-4-isoxazolyl]methoxy]phenyl]ethenyl]benzoic acid], the MIC in data set [1] (BF3, read-out: MIC) is 8 µg/mL (≈ 14.7 µM); with Pseudomonas aeruginosa (read-out: MIC) it was more than 64 µg/mL; in the data set on Enterococcus faecium (read-out: MIC), 8 µg/mL (≈ 14.7 µM); in the data set on Enterobactor aerogens (setting [9]), more than 64 µg/mL; with Acinetobacter baumannii (read-out: MIC), more than 64 µg/mL; in data set [4] (BF2, read-out: MIC), 4 µg/mL (≈ 7.37 µM). Moreover, the MIC in [5] (BF1, read-out: MIC) is 4 µg/mL (≈ 7.37 µM); with Klebsiella pneumoniae (read-out: MIC), more than 64 µg/mL; in data set [7] (BF4, read-out: MIC) it was 8 µg/mL (≈ 14.7 µM); in the data set on MRSA MW2 [8] (setting [10]) it was 8 µg/mL (≈ 14.7 µM); with MRSA MW2 [8] (setting [12]), 4 to 8 µg/mL (≈ 7.37 to 14.7 µM). Also, the median post-infection survival in data set [2] turned out to be 2 days. The Z-Score in [3] is given as 3.28. Moreover, the Eukaryotic cell cytotoxicity in the data set with MKN-28 is 8 µg/mL; in the data set with HepG2 it was 4 µg/mL; with A549, 16 µg/mL. The “cellular fluorescence (Sytox green uptake)” value with MRSA MW2 [6] is “no changes in cellular fluorescence”. Moreover, the “Fractional Inhibitory Concentration (FIC) Index” value in the data set on MRSA-MW2 (with Doxycycline) came out at 2.06; in the data set with MRSA-MW2 (with Erythromycin) it was 1.0; with MRSA-MW2 (with Gentamycin), 0.5; in the data set with MRSA-MW2 (with Oxacillin), 1.0; in the data set with MRSA-MW2 (with Polymyxin B) it was 0.75. The MBC against MRSA MW2 [8] (MRSA MW2) and in the data set on MRSA MW2 [8] (setting [11]) was more than 64 µg/mL throughout.
With `CCCc1c(-c2ccc(O)cc2)nn(-c2ccc(O)cc2)c1-c1ccc(O)cc1` [PPT, 4,4′,4″-(4-Propyl-[1H]-pyrazole-1,3,5-triyl)trisphenol], the MIC in data set [1] (BF3, read-out: MIC) was 8 µg/mL (≈ 20.7 µM); with Pseudomonas aeruginosa (read-out: MIC) it was more than 64 µg/mL; with Enterococcus faecium (read-out: MIC) it was 8 µg/mL (≈ 20.7 µM); with Enterobactor aerogens (setting [9]), more than 64 µg/mL; in the data set with Acinetobacter baumannii (read-out: MIC) it was more than 64 µg/mL; in [4] (BF2, read-out: MIC), 8 µg/mL (≈ 20.7 µM). For the same compound, the MIC in [5] (BF1, read-out: MIC) was 8 µg/mL (≈ 20.7 µM); in the data set with Klebsiella pneumoniae (read-out: MIC) it was more than 64 µg/mL; in data set [7] (BF4, read-out: MIC), 8 µg/mL (≈ 20.7 µM); with MRSA MW2 [8] (setting [10]), 8 µg/mL (≈ 20.7 µM); in the data set with MRSA MW2 [8] (setting [12]), 8 µg/mL (≈ 20.7 µM). The median post-infection survival in [2] is 2 days. In addition, the Z-Score in data set [3] is reported as 5.54. The Eukaryotic cell cytotoxicity in the data set with MKN-28 was 8 µg/mL; with HepG2, 8 µg/mL; with A549, 16 µg/mL. Also, the “cellular fluorescence (Sytox green uptake)” value in the data set with MRSA MW2 [6] was “increases in cellular fluorescence”. In addition, the “Fractional Inhibitory Concentration (FIC) Index” value with MRSA-MW2 (with Doxycycline) is listed as 0.5; in the data set on MRSA-MW2 (with Erythromycin) it was 0.75; in the data set on MRSA-MW2 (with Gentamycin), 1.0; with MRSA-MW2 (with Oxacillin), 1.0; in the data set on MRSA-MW2 (with Polymyxin B), 2.0. For the same compound, in the data set on MRSA MW2 [8] (setting [11]), the MBC was determined as 32 µg/mL (≈ 82.8 µM).
On to `CN[C@H](CC(C)C)C(=O)N[C@H]1C(=O)N[C@@H](CC(N)=O)C(=O)N[C@H]2C(=O)N[C@H]3C(=O)N[C@H](C(=O)N[C@H](C(=O)O)c4cc(O)cc(O)c4-c4cc3ccc4O)[C@H](O)c3ccc(c(Cl)c3)Oc3cc2cc(c3O[C@@H]2O[C@H](CO)[C@@H](O)[C@H](O)[C@H]2O[C@H]2C[C@](C)(N)[C@H](O)[C@H](C)O2)Oc2ccc(cc2Cl)[C@H]1O` [Vancomycin], for which the MIC is 2 µg/mL (≈ 1.38 µM) in data set [1]; more than 64 µg/mL in the data set with Pseudomonas aeruginosa; 4 µg/mL (≈ 2.76 µM) against Enterococcus faecium; more than 64 µg/mL in the data set with Enterobactor aerogens; more than 64 µg/mL in the data set with Acinetobacter baumannii; 2 µg/mL (≈ 1.38 µM) in [4]. Besides, the MIC is 2 µg/mL (≈ 1.38 µM) in data set [5]; more than 64 µg/mL with Klebsiella pneumoniae; 2 µg/mL (≈ 1.38 µM) in [7]; 1 µg/mL (≈ 0.69 µM) against MRSA MW2 [8] (Staphylococcus aureus, MRSA, 18 h). Further, the MBC against MRSA MW2 [8] (Staphylococcus aureus, MRSA) came out at 8 µg/mL (≈ 5.52 µM).
